Counter-ions that a name gives are not always drawn.
Key:
[1] = in vitro; conditions: human, huh7 cells
[2] = tested on: HCV subgenomic replicon stably transfected into Huh7 cell lines (clone BM4.5); assay: anti-HCV activity in HCV subgenomic replicon system (Northern blot of HCV RNA, normalised to actin); format: cell-based, hepatitis C virus (HCV)
Experimental: The potential antiviral (anti HCV) activity of epirubicin hydrochloride was tested in in vitro cell culture model using the HCV subgenomic replicon stably transfected into Huh7 cell lines (clone BM4.5) (Ju-Tao Gao et al., J Virol. 2001).
Huh7 cells containing the HCV replicon were grown in cell culture medium in presence of varying concentration of epirubicin. The media and drug were changed everyday for 5 days. After 5 days of treatment the cells were lysed and total RNA extracted. The isolated RNA was then assayed for presence of HCV replication by Northern Blot analysis, using a HCV probe targeting the NS5B region of HCV.
The cell lines were treated everyday with epirubicin from concentration of 20 nM to 2 nM for 5 days and at the end of treatment RNA from the treated cells were isolated. The total RNA was then probed with a HCV specific probe using Northern blot analysis to detect the HCV RNA. The resulting blot was then exposed to phosphorimager densitometry and the viral replication quantified.

[3] = cited from earlier work

## COc1cccc2c1C(=O)c1c(O)c3c(c(O)c1C2=O)C[C@@](O)(C(=O)CO)C[C@@H]3O[C@H]1C[C@H](N)[C@@H](O)[C@H](C)O1 [epirubicin hydrochloride, 7-O-(3'-amino-2',3',6'-trideoxy-α,β-L-arabinohexpyranosyl)-adriamycinone hydro-chloride]
[1]
  CC50: > 100 nM
[2]; CC50 in Huh7 cells versus IC50 in HCV replicon system
  selectivity index: 25
[2]; Hepatitis C virus, Huh-7, 120 h, Huh7 replicon cells, 5 days of treatment, Figure 2, read-out: 50% inhibitory concentration (IC50), anti-HCV activity measured in HCV replicon system
  IC50: 3 to 5 nM
[3]; antitumor therapy in man
  maximum cumulative dose: 900 - 1000 mg/m^2
[3]; man
  "safe" dose (total cumulative dose, Kaplan-Meier plot of cumulative probability of developing congestive heart failure): 100 - 150 mg/m^2
